Data published in article PMC9270327 (Communications Biology, 2022).
Read-outs that look alike come from different tables or passages of the source.

How the values were obtained:
TMPRSS2 [1] = biological target: T1, TMPRSS2 (Homo sapiens, UniProt O15393); experiment: Plasma stability: residual TMPRSS2 inhibition after incubation in human plasma
Method: The activity of the compounds against the recombinant human enzymes was determined in enzyme inhibition assays. […] The measurements were performed on a Tecan infinite® M1000 and the fluorescence intensity was measured by exciting the AMC fluorophore at 380 nm wavelength and recording emission at 460 nm wavelength. […] Fluorescence intensities and absorption were measured every 2 min for 2 h or as endpoint after 2 h. […] To determine the IC50 values, the concentration-response data were plotted with the program GraphPad prism version 8.4.2 (San Diego, California) and a nonlinear regression fit with the equation [Inhibitor] vs. normalized response was applied. The inhibitory constant Ki was calculated from the IC50 values using the Cheng–Prusoff equation (Ki = IC50/[S]/KM) for competitive reversible inhibitors[66].
The stability of the inhibitors was measured according to a modified procedure from ref. [67]. […] At indicated timepoints, 100 µL samples were taken and mixed with 200 µL of ethanol to precipitate proteins. […] The supernatant was aspirated and analyzed using analytical HPLC. The residual inhibitory constants Ki after incubation was assessed by mixing serial dilutions of the inhibitor with recombinant TMPRSS2 as described above.
Shown are the means ± SD of n=1 experiment performed in triplicates.

[2] = tested on: lentiviral pseudoparticles carrying SARS-CoV-2 Beta (B.1.351) spike, Caco-2 cells; format: cell-based; settings: for SARS-CoV-2 spike driven entry, Mean (0 nM = 100): Fig. 5c
TMPRSS2 [3] = biological target: T1, TMPRSS2; format: biochemical; parameters: purchased Creative BioMart (New York, USA) or LSBio (Seattle, USA); settings: for TMPRSS2 activity, Mean (Fig. 2a): normalized, 0 nM = 100
Description: (§1) Recombinant human TMPRSS2 was purchased from Creative BioMart (New York, USA) or LSBio (Seattle, USA), factor Xa was obtained from Bio-Techne GmbH (Wiesbaden, Germany). Recombinant human thrombin and matriptase protein were purchased from R&D Systems (Minneapolis, MN, USA).

[4] = tested on: SARS-CoV-2 Beta (B.1.351), Caco-2 cells; format: cell-based; settings: for SARS-CoV-2 infection, Mean (0 nM = 100): Fig. 6d, VOC Beta
factor Xa = biological target: T2, factor Xa (Homo sapiens, UniProt P00742); experiment: Enzyme inhibition assay with purified factor Xa (Ki, dose-response); format: biochemical; settings: for factor Xa activity, Mean (Fig. 2d): normalized, 0 nM = 100
T2 construct: purchased Bio-Techne GmbH (Wiesbaden, Germany)
Description: as §1

[5] = biological target: cellular TMPRSS2 activity, Caco-2 cells (Homo sapiens, UniProt O15393); settings: for cellular protease activity on Caco-2 cells, Mean (Fig. 4a): normalized, 0 nM = 100
Method: In total, 10,000 Caco-2 cells (ATCC) in 100 µL EMEM medium supplemented with 10% FBS, 100 U/mL penicillin, […] streptomycin, and 2 mM glutamine (all Invitrogen, Germany) were seeded per well in a 96-well plate and incubated at 37 °C for 4 days until full confluency of the cells. The cells were washed two times with PBS and EMEM medium without FBS was added. […] The fluorescence intensity was measured as described above. In all, 20,000 HEK293T cells (ATCC) were seeded in 100 µL DMEM supplemented with 10% FBS, 100 U/mL penicillin, […] streptomycin, and 2 mM glutamine. […] After 14 h, transfection mix was removed from the cells and 80 µL fresh medium without FBS and 10 µL inhibitors were added (final concentration 50 µM). […] Fluorescence intensity was measured after 2 h at 37 °C as described above.

T1 sequence (O15393 whole entry): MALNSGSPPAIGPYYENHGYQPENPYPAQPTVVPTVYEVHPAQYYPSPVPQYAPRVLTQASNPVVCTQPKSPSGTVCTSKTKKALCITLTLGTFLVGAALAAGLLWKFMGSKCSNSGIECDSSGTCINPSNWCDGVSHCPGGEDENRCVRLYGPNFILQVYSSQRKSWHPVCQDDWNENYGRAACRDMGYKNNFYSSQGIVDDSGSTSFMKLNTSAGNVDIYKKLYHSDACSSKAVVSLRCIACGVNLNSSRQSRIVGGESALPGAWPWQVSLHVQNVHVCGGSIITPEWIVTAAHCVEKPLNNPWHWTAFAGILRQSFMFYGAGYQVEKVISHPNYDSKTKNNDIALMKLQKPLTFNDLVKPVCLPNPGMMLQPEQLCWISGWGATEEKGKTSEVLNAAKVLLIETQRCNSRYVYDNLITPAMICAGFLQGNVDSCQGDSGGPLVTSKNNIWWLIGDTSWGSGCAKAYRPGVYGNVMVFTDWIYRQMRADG
Chain of cellular TMPRSS2 activity, Caco-2 cells (O15393 whole entry): as above
T2 sequence (P00742 235-488 limits assumed): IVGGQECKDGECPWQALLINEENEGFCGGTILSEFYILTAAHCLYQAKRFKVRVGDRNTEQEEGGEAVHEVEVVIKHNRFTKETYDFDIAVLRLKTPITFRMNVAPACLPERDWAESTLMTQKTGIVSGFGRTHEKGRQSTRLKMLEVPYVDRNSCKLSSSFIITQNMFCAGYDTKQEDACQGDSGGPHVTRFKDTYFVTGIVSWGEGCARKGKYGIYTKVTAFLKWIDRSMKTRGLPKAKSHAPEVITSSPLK
T2 sequence (P00742 41-179 partner limits assumed): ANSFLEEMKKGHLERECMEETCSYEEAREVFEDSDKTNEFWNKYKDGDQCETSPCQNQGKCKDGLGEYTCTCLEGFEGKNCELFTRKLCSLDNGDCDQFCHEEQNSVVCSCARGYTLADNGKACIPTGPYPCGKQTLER

## ace-Arg-Pro-Arg-kbt [Compound 2]
TMPRSS2 [1]; inhibitor 166.5 nM, 120 min in plasma
  TMPRSS2 activity, Mean (0 nM = 100): 22.618
TMPRSS2 [1]; inhibitor 166.5 nM, 24 h in plasma
  TMPRSS2 activity, Mean (0 nM = 100): 21.6315
TMPRSS2 [1]; inhibitor 166.5 nM, 10 d in plasma
  TMPRSS2 activity, Mean (0 nM = 100): 39.6688
TMPRSS2 [1]; inhibitor 166.5 nM, positive ctrl
  TMPRSS2 activity, Mean (0 nM = 100): 13.9877
TMPRSS2 [1]; inhibitor 1665 nM, 0 min in plasma
  TMPRSS2 activity, Mean (0 nM = 100): 0.5738
TMPRSS2 [1]; inhibitor 1665 nM, 30 min in plasma
  TMPRSS2 activity, Mean (0 nM = 100): 7.5387
TMPRSS2 [1]; inhibitor 1665 nM, 60 min in plasma
  TMPRSS2 activity, Mean (0 nM = 100): 0.2056
TMPRSS2 [1]; inhibitor 1665 nM, 120 min in plasma
  TMPRSS2 activity, Mean (0 nM = 100): 7.6223
TMPRSS2 [1]; inhibitor 1665 nM, 24 h in plasma
  TMPRSS2 activity, Mean (0 nM = 100): 2.774
TMPRSS2 [1]; inhibitor 1665 nM, 10 d in plasma
  TMPRSS2 activity, Mean (0 nM = 100): 10.1282
TMPRSS2 [1]; inhibitor 1665 nM, positive ctrl
  TMPRSS2 activity, Mean (0 nM = 100): 12.6313
[2]; Caco-2 cells, luciferase 2 days post transduction, read-out: IC50 pseudotyped lentivirus Beta
  IC50: 434 nM
[2]; compound 3.2 nM
  SARS-CoV-2 spike driven entry, Mean (0 nM = 100): 86.789
[2]; compound 16 nM
  SARS-CoV-2 spike driven entry, Mean (0 nM = 100): 76.3745
[2]; compound 80 nM
  SARS-CoV-2 spike driven entry, Mean (0 nM = 100): 81.347
[2]; compound 400 nM
  SARS-CoV-2 spike driven entry, Mean (0 nM = 100): 58.1085
[2]; compound 2000 nM
  SARS-CoV-2 spike driven entry, Mean (0 nM = 100): 24.7225
[2]; compound 10000 nM
  SARS-CoV-2 spike driven entry, Mean (0 nM = 100): 3.543
[2]; compound 50000 nM
  SARS-CoV-2 spike driven entry, Mean (0 nM = 100): 0.923
TMPRSS2 [3]; 0.05 nM
  TMPRSS2 activity, Mean (Fig. 2a): 92
TMPRSS2 [3]; 0.5 nM
  TMPRSS2 activity, Mean (Fig. 2a): 90.3158
TMPRSS2 [3]; 5 nM
  TMPRSS2 activity, Mean (Fig. 2a): 62.9474
TMPRSS2 [3]; 50 nM
  TMPRSS2 activity, Mean (Fig. 2a): 19.7895
TMPRSS2 [3]; 500 nM
  TMPRSS2 activity, Mean (Fig. 2a): 3.789
TMPRSS2 [3]; 5000 nM
  TMPRSS2 activity, Mean (Fig. 2a): 0.6316
TMPRSS2 [3]; 50000 nM
  TMPRSS2 activity, Mean (Fig. 2a): 0.4211
TMPRSS2 [3]; 500000 nM
  TMPRSS2 activity, Mean (Fig. 2a): -1.895
TMPRSS2 [3]; 30 min preincubation, substrate Boc-Gln-Ala-Arg-AMC, Ki from IC50 by Cheng–Prusoff
  Ki: 3.8 nM
TMPRSS2 [3]; ratio of Ki values
  fold more active than FOY-251 against isolated TMPRSS2: 2–3 fold
[4]; compound 32 nM
  SARS-CoV-2 infection, Mean (0 nM = 100): 90.9628
[4]; compound 160 nM
  SARS-CoV-2 infection, Mean (0 nM = 100): 88.9778
[4]; compound 800 nM
  SARS-CoV-2 infection, Mean (0 nM = 100): 79.0008
[4]; compound 4000 nM
  SARS-CoV-2 infection, Mean (0 nM = 100): 83.4908
[4]; compound 20000 nM
  SARS-CoV-2 infection, Mean (0 nM = 100): 3.338
[4]; compound 100000 nM
  SARS-CoV-2 infection, Mean (0 nM = 100): -2.162
[4]; read-out: IC50 SARS-CoV-2 Beta
  IC50: 6880 nM
Factor Xa; 0.02 nM
  factor Xa activity, Mean (Fig. 2d): 109.27
Factor Xa; 0.04 nM
  factor Xa activity, Mean (Fig. 2d): 100.653
Factor Xa; 0.2 nM
  factor Xa activity, Mean (Fig. 2d): 101.827
Factor Xa; 2 nM
  factor Xa activity, Mean (Fig. 2d): 97.7797
Factor Xa; 20 nM
  factor Xa activity, Mean (Fig. 2d): 88.6416
Factor Xa; 200 nM
  factor Xa activity, Mean (Fig. 2d): 49.7393
Factor Xa; 10000 nM
  factor Xa activity, Mean (Fig. 2d): 7.702
Factor Xa; 100000 nM
  factor Xa activity, Mean (Fig. 2d): 2.742
Factor Xa; 30 min preincubation, substrate Bz-Ile-Glu-Gly-Arg-pNA
  Ki: 107 nM
Factor Xa; quotient Ki factor Xa / Ki TMPRSS2
  Selectivity index Factor Xa: 28.1
[5]; 0.1 nM
  cellular protease activity on Caco-2 cells, Mean (Fig. 4a): 109.802
[5]; 1 nM
  cellular protease activity on Caco-2 cells, Mean (Fig. 4a): 82.1942
[5]; 10 nM
  cellular protease activity on Caco-2 cells, Mean (Fig. 4a): 70.6835
[5]; 100 nM
  cellular protease activity on Caco-2 cells, Mean (Fig. 4a): 32.9137
[5]; 1000 nM
  cellular protease activity on Caco-2 cells, Mean (Fig. 4a): -3.058
[5]; 10000 nM
  cellular protease activity on Caco-2 cells, Mean (Fig. 4a): 1.349
[5]; 100000 nM
  cellular protease activity on Caco-2 cells, Mean (Fig. 4a): 2.158
[5]; read-out: IC50 Caco2, cell-mediated proteolysis of Boc-Gln-Ala-Arg-AMC, 30 min preincubation
  IC50: 32 nM
